This assay addresses T1, Bisphosphoglycerate mutase (Homo sapiens, UniProt P07738).
T1 sequence (P07738 whole entry): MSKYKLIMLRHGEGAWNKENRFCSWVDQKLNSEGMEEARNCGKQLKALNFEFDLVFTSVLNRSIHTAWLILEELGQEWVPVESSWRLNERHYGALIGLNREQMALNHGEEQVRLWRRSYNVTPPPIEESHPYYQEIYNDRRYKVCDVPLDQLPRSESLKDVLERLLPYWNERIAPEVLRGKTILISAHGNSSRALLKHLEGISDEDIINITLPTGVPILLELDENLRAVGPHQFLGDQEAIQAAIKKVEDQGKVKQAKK
The assay can be described thus: Inhibition of human Bis-phosphoglycerate mutase using 3-PG, GAP and NAD as substrate preincubated for 30 mins followed by substrate addition and measured after 100 mins in presence of GAPDH by resazurin reagent based fluorescence analysis. In general terms: The colour change of resazurin is a common sign of viable cells or microbes.
With `Cc1nc(COc2ncccn2)sc1-c1cccc(-c2ccc(-c3noc(=O)[nH]3)cc2)n1`, the IC50 came to 138 nM.
Then `Cc1nc(COc2ncccn2)sc1-c1csc(-c2cc(F)c(O)c(F)c2F)n1`, with 159 nM; and `Cc1nc(COc2cccnn2)sc1-c1csc(-c2cc(F)c3[nH]nnc3c2)n1`, with 92 nM; and `Cc1nc(COCC(C)(C)O)sc1-c1cccc(-c2cc(F)c3nn[nH]c3c2F)n1`, with 19 nM.
The result for `Cc1cnc(OCc2nc(C)c(-c3cccc(-c4cc(F)c5nn[nH]c5c4F)n3)s2)nc1` reads 21 nM.

One may read the IC50 as the concentration that inhibits the measured activity by half.
